Assays:
[1] = tested on: TRZAS; experiment: D. Pre-emergence effects on crop plants (Tables D); type: in vivo, Triticum aestivum; details: crop plant
Source text: (§1) Seeds of mono- and dicotyledonous weed plants and crop plants were sown, in plastic or organic planting pots, in sandy loam and covered with soil. The compounds according to the invention, formulated in the form of wettable powders (WP) or as emulsifiable concentrates (EC), were applied to the surface of the covering soil as aqueous suspension or emulsion, with the addition of 0.5% of an additive, at an application rate of 6001 of water/ha (converted).
(§2) Following treatment, the pots were placed in a greenhouse and kept under optimum growth conditions for the test plants. The visual grading of the damage to the test plants was carried out after ca. 3 weeks in comparison to untreated controls (herbicidal effect in percent (%): 100% effect = plants have died off, 0% effect = as control plants).
(§3) Tables D1 to D5 below show the effects of various compounds of the general formula (I) according to Table 1 on various crop plants and an application rate corresponding to 320 g/ha or below obtained by the experimental procedure mentioned above in Biological Examples, Section C. Table D1a: pre-emergence activity at 320g/ha against ZEAMX in %

[2] = tested on: GLXMA; experiment: F. Post-emergence effects on crop plants (Tables F); type: in vivo, Glycine max; details: application rate 320 g/ha, crop plant
Source text: (§4) Seeds of mono- and dicotyledonous weed plants and crop plants were sown, in plastic or organic planting pots, in sandy loam, covered with soil and grown in a greenhouse under controlled growth conditions. 2 to 3 weeks after sowing, the test plants were sprayed in the single-leaf stage. The compounds according to the invention, formulated in form of wettable powders (WP) or as emulsifiable concentrates (EC), were sprayed onto the green plant parts as aqueous suspension or emulsion, with the addition of 0.5% of an additive, at an application rate of 6001 of water/ha (converted). The test plants were placed in the greenhouse for ca. 3 weeks under optimum growth conditions, and then the effect of the preparations was assessed visually in comparison with untreated controls (herbicidal effect in percent (%): 100% effect = plants have died off, 0% effect = as control plants). Tables F1 to F5 below show the effects of selected compounds of the general formula (I) according to table 1 on various crop plants and an application rate corresponding to 320 g/ha or below obtained by the experimental procedure mentioned above. Table […]: post-emergence activity at 320g/ha against ZEAMX in %

[3] = tested on: TRZAS; experiment: as above; type: in vivo, Triticum aestivum; details: crop plant
Source text: as §4

[4] = tested on: GLXMA; experiment: D. Pre-emergence effects on crop plants (Tables D); type: in vivo, Glycine max; details: crop plant
Source text: as §1, §2, §3

[5] = tested on: BRSNW; experiment: F. Post-emergence effects on crop plants (Tables F); type: in vivo, Brassica napus; details: application rate 320 g/ha, crop plant
Source text: as §4

[6] = tested on: BRSNW; experiment: D. Pre-emergence effects on crop plants (Tables D); type: in vivo, Brassica napus; details: crop plant
Source text: as §1, §2, §3

[7] = tested on: ZEAMX; experiment: F. Post-emergence effects on crop plants (Tables F); type: in vivo, Zea mays; details: crop plant
Source text: as §4

[8] = tested on: ZEAMX; experiment: D. Pre-emergence effects on crop plants (Tables D); type: in vivo, Zea mays; details: crop plant
Source text: as §1, §2, §3

[9] = tested on: MATIN; experiment: A. Herbicidal pre-emergence action on harmful plants (Tables A); type: in vivo, Matricaria inodora; details: visual grading after ca. 3 weeks vs untreated controls, 100% = plants have died off, 0% = as control plants
Procedure, shortened: (§5)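 Values are visual percent damage relative to untreated controls, scored ca. 3 weeks after the compound was sprayed on the covering soil of sown pots (sandy loam) at rates up to 1280 g/ha, formulated as WP or EC with 0.5% additive.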

[10] = tested on: STEME; experiment: as above; type: in vivo, Stellaria media; details: visual grading after ca. 3 weeks vs untreated controls, 100% = plants have died off, 0% = as control plants
Procedure, shortened: as §5

[11] = tested on: ECHCG; experiment: as above; type: in vivo, Echinochloa crus-galli; details: visual grading after ca. 3 weeks vs untreated controls, 100% = plants have died off, 0% = as control plants
Procedure, shortened: as §5

[12] = tested on: SETVI; experiment: as above; type: in vivo, Setaria viridis; details: visual grading after ca. 3 weeks vs untreated controls, 100% = plants have died off, 0% = as control plants
Procedure, shortened: as §5

[13] = tested on: VERPE; experiment: as above; type: in vivo, Veronica persica; details: application rate 1280 g/ha; Table A11
Source text: Seeds of mono- and dicotyledonous weed plants were sown in plastic pots (double sowings with one species of mono- and one species of dicotyledonous weed plants per pot), in sandy loam, and covered with soil. The compounds according to the invention, formulated in the form of wettable powders (WP) or as emulsifiable concentrates (EC), were applied to the surface of the covering soil as aqueous suspension or emulsion, with the addition of 0.5% of an additive, at an application rate of 6001 of water per hectare (converted). Following treatment, the pots were placed in a greenhouse and kept under optimum growth conditions for the test plants. The visual grading of the damage to the test plants was carried out after ca. 3 weeks in comparison to untreated controls (herbicidal effect in percent (%): 100% effect = plants have died off, 0% effect = as control plants). Tables A1 to A12, below, show the effects of selected compounds of the general formula (I) according to table 1 on various harmful plants and an application rate corresponding to 1280 g/ha or below obtained by the experimental procedure mentioned above. Table A1: pre-emergence activity at 1280g/ha against ABUTH in %

[14] = tested on: VERPE; experiment: B. Herbicidal post-emergence action on harmful plants (Tables B); type: in vivo, Veronica persica
Procedure, shortened: (§6)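 Greenhouse weeds grown in sandy loam were sprayed post-emergence at the one-leaf stage, 2-3 weeks after sowing. Compounds were applied as WP or EC in water with 0.5% additive at 600 L/ha, at 1280 g/ha or below. Visual damage was rated after about 3 weeks versus untreated plants (0-100%).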

[15] = tested on: POAAN; experiment: as above; type: in vivo, Poa annua
Procedure, shortened: as §6

[16] = tested on: AMARE; experiment: A. Herbicidal pre-emergence action on harmful plants (Tables A); type: in vivo, Amaranthus retroflexus
Procedure, shortened: as §5

[17] = tested on: ALOMY; experiment: as above; type: in vivo, Alopecurus myosuroides
Procedure, shortened: as §5

[18] = tested on: DIGSA; experiment: as above; type: in vivo, Digitaria sanguinalis
Procedure, shortened: as §5

[19] = tested on: ECHCG; experiment: B. Herbicidal post-emergence action on harmful plants (Tables B); type: in vivo, Echinochloa crus-galli
Procedure, shortened: as §6

[20] = tested on: MATIN; experiment: as above; type: in vivo, Matricaria inodora
Experimental: (§7) Seeds of mono- and dicotyledonous weed plants were placed in plastic pots in sandy loam soil (doubly sown with in each case one species of mono- or dicotyledonous weed plants per pot), covered with soil and cultivated in a greenhouse under controlled growth conditions. 2 to 3 weeks after sowing, the test plants were treated at the one-leaf stage. The compounds of the invention, formulated in the form of wettable powders (WP) or as emulsion concentrates (EC), were applied onto the green parts of the plants as aqueous suspension or emulsion with addition of 0.5% additive at a water application rate of 600 liters per hectare (converted). After the test plants had been kept in the greenhouse under optimum growth conditions for about 3 weeks, the activity of the preparations was rated visually in comparison to untreated controls. For example, 100% activity = the plants have died, 0% activity = like control plants. Tables B1 to B12, below, show the effects of selected compounds of the general formula (I) according to table 1 on various harmful plants and an application rate corresponding to 1280 g/ha or below obtained by the experimental procedure mentioned above. Table B1a: post-emergence activity at 1280g/ha against ABUTH in %

[21] = tested on: LOLRI; experiment: A. Herbicidal pre-emergence action on harmful plants (Tables A); type: in vivo, Lolium rigidum; details: visual grading after ca. 3 weeks vs untreated controls, 100% = plants have died off, 0% = as control plants
Procedure, shortened: as §5

[22] = tested on: POAAN; experiment: as above; type: in vivo, Poa annua
Procedure, shortened: as §5

[23] = tested on: ABUTH; experiment: B. Herbicidal post-emergence action on harmful plants (Tables B); type: in vivo, Abutilon theophrasti
Experimental: as §7

[24] = tested on: DIGSA; experiment: as above; type: in vivo, Digitaria sanguinalis; details: application rate 1280 g/ha; Table B12a
Experimental: as §7

[25] = tested on: SETVI; experiment: as above; type: in vivo, Setaria viridis; details: application rate 1280 g/ha; Table B5
Experimental: as §7

[26] = tested on: STEME; experiment: as above; type: in vivo, Stellaria media; details: application rate 1280 g/ha; Table B6
Experimental: as §7

[27] = application rate 1280 g/ha, visual grading after ca. 3 weeks vs untreated controls, 100% = plants have died off, 0% = as control plants

Cn1cc(C(=O)N2CCCC2Cc2ccccc2F)c(COCC2COC2)n1 (racemic) [Example I-091]
pre-emergence activity against TRZAS ([1]; application rate 80 g/ha, Table D2b): 0%
pre-emergence activity against TRZAS ([1]; application rate 320 g/ha, Table D2a): 0%
post-emergence activity against GLXMA in % [2]: 0%
post-emergence activity against TRZAS in % ([3]; application rate 80 g/ha): 0%
post-emergence activity against TRZAS in % ([3]; application rate 320 g/ha): 0%
pre-emergence activity against GLXMA ([4]; application rate 80 g/ha, Table D4b): 0%
pre-emergence activity against GLXMA ([4]; application rate 320 g/ha, Table D4a): 0%
post-emergence activity against BRSNW in % [5]: 0%
pre-emergence activity against BRSNW in % ([6]; application rate 80 g/ha): 0%
pre-emergence activity against BRSNW in % ([6]; application rate 320 g/ha): 0%
post-emergence activity against ZEAMX in % ([7]; application rate 80 g/ha): 0%
post-emergence activity against ZEAMX in % ([7]; application rate 320 g/ha): 0%
pre-emergence activity against ZEAMX ([8]; application rate 80 g/ha, Table D1b): 0%
pre-emergence activity against ZEAMX ([8]; application rate 320 g/ha, Table D1a): 0%

COCc1nn(C)cc1C(=O)N1CCCC1Cc1c(F)cccc1F (single isomer, unassigned) [Example I-082]
pre-emergence activity against MATIN ([9]; application rate 80 g/ha): 90%
pre-emergence activity against MATIN ([9]; application rate 320 g/ha): 90%
pre-emergence activity against MATIN ([9]; application rate 1280 g/ha): 90%
pre-emergence activity against STEME ([10]; application rate 80 g/ha): 90%
pre-emergence activity against STEME ([10]; application rate 320 g/ha): 90%
pre-emergence activity against STEME ([10]; application rate 1280 g/ha): 90%
pre-emergence activity against ECHCG ([11]; application rate 80 g/ha): 90%
pre-emergence activity against ECHCG ([11]; application rate 320 g/ha): 90%
pre-emergence activity against ECHCG ([11]; application rate 1280 g/ha): 100%
pre-emergence activity against SETVI ([12]; application rate 80 g/ha): 90%
pre-emergence activity against SETVI ([12]; application rate 320 g/ha): 100%
pre-emergence activity against SETVI ([12]; application rate 1280 g/ha): 100%
pre-emergence activity against VERPE [13]: 90%
post-emergence activity against VERPE ([14]; application rate 320 g/ha, Table B11b): 90%
post-emergence activity against VERPE ([14]; application rate 1280 g/ha, Table B11a): 90%
post-emergence activity against POAAN ([15]; application rate 80 g/ha, Table B7c): 90%
post-emergence activity against POAAN ([15]; application rate 320 g/ha, Table B7b): 90%
post-emergence activity against POAAN ([15]; application rate 1280 g/ha, Table B7a): 100%
pre-emergence activity against AMARE ([16]; application rate 320 g/ha, Table A8b): 90%
pre-emergence activity against AMARE [16, 27]: 90%
pre-emergence activity against ALOMY ([17]; application rate 320 g/ha, Table A9b): 90%
pre-emergence activity against ALOMY ([17]; application rate 1280 g/ha, Table A9a): 90%
pre-emergence activity against DIGSA ([18]; application rate 80 g/ha, Table A12c): 100%
pre-emergence activity against DIGSA ([18]; application rate 320 g/ha, Table A12b): 100%
pre-emergence activity against DIGSA ([18]; application rate 1280 g/ha, Table A12a): 100%
post-emergence activity against ECHCG ([19]; application rate 320 g/ha, Table B2b): 90%
post-emergence activity against ECHCG ([19]; application rate 1280 g/ha, Table B2a): 90%
post-emergence activity against MATIN ([20]; application rate 320 g/ha, Table B4b): 90%
post-emergence activity against MATIN ([20]; application rate 1280 g/ha, Table B4a): 90%
pre-emergence activity against LOLRI ([21]; application rate 80 g/ha): 90%
pre-emergence activity against LOLRI ([21]; application rate 320 g/ha): 100%
pre-emergence activity against LOLRI ([21]; application rate 1280 g/ha): 100%
pre-emergence activity against POAAN ([22]; application rate 80 g/ha, Table A7c): 100%
pre-emergence activity against POAAN ([22]; application rate 320 g/ha, Table A7b): 100%
pre-emergence activity against POAAN [22, 27]: 100%
post-emergence activity against ABUTH ([23]; application rate 320 g/ha, treated at the one-leaf stage, rated visually after about 3 weeks vs untreated controls, 100% = the plants have died, 0% = like control plants): 90%
post-emergence activity against ABUTH ([23]; application rate 1280 g/ha, Table B1a): 90%
post-emergence activity against DIGSA [24]: 90%
post-emergence activity against SETVI [25]: 90%
post-emergence activity against STEME [26]: 90%
